Target: T1, ADAR1 (Homo sapiens, UniProt P55265)
T1 construct: endogenous in cells; host or cells: p110 KO A549 dual cells
T1 sequence (P55265 1-1226): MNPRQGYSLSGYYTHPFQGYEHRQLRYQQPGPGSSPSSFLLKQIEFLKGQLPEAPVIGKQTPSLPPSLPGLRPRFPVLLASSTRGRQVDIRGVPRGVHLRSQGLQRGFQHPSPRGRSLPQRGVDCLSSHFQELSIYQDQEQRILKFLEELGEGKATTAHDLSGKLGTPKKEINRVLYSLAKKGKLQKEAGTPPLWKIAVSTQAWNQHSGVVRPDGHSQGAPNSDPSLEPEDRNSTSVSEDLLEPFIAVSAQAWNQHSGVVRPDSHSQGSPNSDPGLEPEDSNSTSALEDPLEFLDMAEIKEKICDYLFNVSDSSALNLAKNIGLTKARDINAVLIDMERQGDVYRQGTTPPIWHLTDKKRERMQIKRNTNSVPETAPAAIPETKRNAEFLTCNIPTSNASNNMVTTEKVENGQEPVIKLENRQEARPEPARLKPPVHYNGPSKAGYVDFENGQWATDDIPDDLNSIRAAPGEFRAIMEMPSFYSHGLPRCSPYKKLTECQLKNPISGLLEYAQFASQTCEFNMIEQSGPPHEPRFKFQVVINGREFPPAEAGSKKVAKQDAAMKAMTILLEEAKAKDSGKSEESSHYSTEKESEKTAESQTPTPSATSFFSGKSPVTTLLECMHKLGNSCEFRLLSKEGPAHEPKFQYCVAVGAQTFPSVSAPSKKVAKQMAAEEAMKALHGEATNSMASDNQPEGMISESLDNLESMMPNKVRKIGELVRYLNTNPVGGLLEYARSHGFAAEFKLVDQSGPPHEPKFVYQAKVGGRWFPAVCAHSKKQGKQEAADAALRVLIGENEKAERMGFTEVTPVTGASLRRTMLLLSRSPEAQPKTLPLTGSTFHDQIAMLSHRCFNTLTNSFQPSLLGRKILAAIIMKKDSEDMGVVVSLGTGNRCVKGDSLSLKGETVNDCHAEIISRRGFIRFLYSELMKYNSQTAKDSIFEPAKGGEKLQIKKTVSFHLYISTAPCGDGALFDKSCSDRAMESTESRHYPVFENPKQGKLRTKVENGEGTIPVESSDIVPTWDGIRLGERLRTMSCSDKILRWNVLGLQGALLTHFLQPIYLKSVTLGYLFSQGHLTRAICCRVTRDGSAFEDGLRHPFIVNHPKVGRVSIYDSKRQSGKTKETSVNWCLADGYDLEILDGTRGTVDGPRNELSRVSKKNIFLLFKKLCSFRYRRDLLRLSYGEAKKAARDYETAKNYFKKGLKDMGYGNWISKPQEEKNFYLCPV
Assay: ADAR1 Inhibition Assay (IFN fold-induction, Quanti-Luc luminescence, p110 KO A549 dual cells)
Format: cell-based
Settings: IFN fold-induction vs DMSO, 24 and 48 h
Outline: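 p110 KO A549 dual cells (20,000/well) in supplemented DMEM, treated next day with compound at 1% final DMSO for 24 and 48 h at 37 °C, 5% CO2. Supernatant luminescence read with Quanti-Luc; IFN fold-induction = sample RLU/mean DMSO RLU, used for EC50.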

Structure (SMILES) | EC50 [µM]
CCOC(=O)c1cc(-c2ccccc2)sc1NC(=O)COCc1cccc(NS(C)(=O)=O)c1 [Compound 207] | > 100
CCOC(=O)c1cc(-c2cccc(OC)c2)sc1NC(=O)COC(=O)c1cccc(NS(C)(=O)=O)c1 [Compound 211] | > 100
CCOC(=O)c1cc(-c2cccc(C#N)c2)sc1NC(=O)COC(=O)c1cccc(NS(C)(=O)=O)c1 [Compound 212] | > 100
CCOC(=O)c1cc(-c2ccc(N(C)C)cc2)sc1NC(=O)COC(=O)c1cccc(NS(C)(=O)=O)c1 [Compound 213] | > 100
CCOC(=O)c1cc(-c2ccccc2)sc1NC(=O)Cc1nc(-c2cccc(NS(C)(=O)=O)c2)no1 [Compound 216] | > 100
CON(C)C(=O)c1cc(-c2ccccc2)sc1NC(=O)COC(=O)c1cccc(NS(C)(=O)=O)c1 [Compound 217] | > 100
CCOC(=O)c1cc(-c2ccc(O)cc2)sc1NC(=O)COC(=O)c1cccc(NS(C)(=O)=O)c1 [Compound 218] | > 100
CS(=O)(=O)Nc1cccc(C(=O)OCC(=O)N2CCN(c3ccccc3)C2=S)c1 [Compound 221] | > 100
CCOC(=O)c1cc(-c2ccccc2)sc1NC(=O)c1nnc(-c2cccc(NS(C)(=O)=O)c2)s1 [Compound 222] | > 100
CS(=O)(=O)Nc1cccc(C(=O)OCC(=O)Nc2sc(-c3ccccc3)cc2C(=O)OCCOCc2ccccc2)c1 [Compound 223] | > 100
CCOC(=O)c1cc(-c2ccc(C(=O)O)cc2)sc1NC(=O)COC(=O)c1cccc(NS(C)(=O)=O)c1 [Compound 226] | > 100
CCOC(=O)c1cc(-c2ccccc2)sc1NC(=O)CCOC(=O)c1cccc(NS(C)(=O)=O)c1 [Compound 229] | > 100
CCOC(=O)c1cc(C2CC2)sc1NC(=O)COC(=O)c1cccc(NS(C)(=O)=O)c1 [Compound 230] | > 100
CCOC(=O)c1cc(-c2ccccc2)sc1NC(=O)C(C)(C)Nc1cccc(NS(C)(=O)=O)c1 [Compound 231] | > 100
CCOC(=O)c1cc(-c2ccccc2)sc1NC(=O)CNS(=O)(=O)c1cccc(NS(C)(=O)=O)c1 [Compound 232] | > 100
CCOC(=O)c1cc(-c2ccccc2)sc1N1C(=O)N(c2cccc(NS(C)(=O)=O)c2)C(C)(C)C1=O [Compound 233] | > 100
CCOc1nc(NC(=O)COC(=O)c2cccc(NS(C)(=O)=O)c2)ncc1-c1ccccc1 [Compound 235] | > 100
CCOC(=O)c1cccc2nc(NC(=O)COC(=O)c3cccc(NS(C)(=O)=O)c3)sc12 [Compound 236] | > 100
CCOC(=O)c1cc(-c2ccccc2)sc1NC(=O)CCN(C(C)=O)c1cccc(N(C(C)=O)S(C)(=O)=O)c1 [Compound 237] | > 100
CCOC(=O)c1nc(-c2ccccc2)ccc1NC(=O)COC(=O)c1cccc(NS(C)(=O)=O)c1 [Compound 245] | > 100
CCOC(=O)c1cc(NC(=O)COC(=O)c2cccc(NS(C)(=O)=O)c2)sc1-c1ccccc1 [Compound 247] | > 100
CCOC(=O)c1cc(-c2ccccc2)sc1NC(=O)COC(c1cccc(NS(C)(=O)=O)c1)C(F)(F)F (stereo not drawn) [Compound 250] | > 100
CCOC(=O)c1cnc(NC(=O)COC(=O)c2cccc(NS(C)(=O)=O)c2)c(-c2ccccc2)c1 [Compound 254] | > 100
CCOC(=O)c1cc(-c2ccccc2)sc1NC(=O)c1nc(-c2cccc(NS(C)(=O)=O)c2)no1 [Compound 255] | > 100
CCOC(=O)c1cc(-c2ccccc2)sc1NC(=O)COC(=O)c1cccc(NS(=O)(=O)C(F)(F)F)c1 [Compound 257] | > 100
CS(=O)(=O)Nc1cccc(C(=O)OCC(=O)Nc2ncc(-c3ccccc3)cc2CO)c1 [Compound 259] | > 100
CCOC(=O)c1cc(-c2ccccc2)sc1NC(=O)NNC(=O)c1cccc(NS(C)(=O)=O)c1 [Compound 262] | > 100
CCOC(=O)c1cc(-c2ccccc2)sc1NC(=O)Oc1ccc(NS(C)(=O)=O)cc1 [Compound 267] | > 100

Other lines, results leading:

EC50 [µM] | Structure (SMILES)
> 100 | CCOC(=O)c1cc(-c2ccccc2)sc1NC(=O)COC1CCN(C(=O)c2cccc(NS(C)(=O)=O)c2)CC1 [Compound 208]
> 100 | CS(=O)(=O)Nc1cccc(C(=O)OCC(=O)Nc2sc(-c3ccccc3)cc2C(=O)OCC(=O)O)c1 [Compound 209]
> 100 | CCOC(=O)c1cc(-c2ccccc2)ncc1NC(=O)C1CCN(C(=O)c2cccc(NS(C)(=O)=O)c2)C1 (stereo not drawn) [Compound 210]
> 100 | CCOC(=O)c1c(-c2ccccc2)noc1NC(=O)COC(=O)c1cccc(NS(C)(=O)=O)c1 [Compound 214]
> 100 | CCOC(=O)c1cc(-c2ccccc2)sc1NC(=O)Cn1cnc2cnc(N)nc21 [Compound 215]
≤ 25 | CCOC(=O)c1cc(-c2ccccc2)sc1NC(=O)c1nnc(-c2cccc(NS(C)(=O)=O)c2)o1 [Compound 219]
> 100 | CCOC(=O)c1cc(-c2ccccc2)sc1NC(=O)C1CN(C(=O)c2cccc(NS(C)(=O)=O)c2)CCO1 (stereo not drawn) [Compound 224]
> 100 | CCOC(=O)c1cc(-c2ccccc2)sc1NC(=O)Cn1cnc2cnc(NS(C)(=O)=O)nc21 [Compound 225]
> 100 | CCOC(=O)c1cc(-c2ccccc2)sc1NC(=O)C1CCN(S(=O)(=O)c2cccc(NS(C)(=O)=O)c2)C1 (stereo not drawn) [Compound 227]
> 100 | CCOC(=O)c1cc(-c2ccccc2)sc1NC(=O)CN1C(=O)c2ccc(NS(C)(=O)=O)cc2C1=O [Compound 234]
> 100 | CCOC(=O)c1cc(-c2ccccc2)sc1NC(=O)CN1C(=O)CN(C(=O)c2cccc(NS(C)(=O)=O)c2)C1=O [Compound 238]
> 100 | CCOC(=O)c1cc(-c2ccccc2)sc1NC(=O)CN1C(=O)CN(S(C)(=O)=O)C1=O [Compound 239]
> 100 | CCOC(=O)c1cc(-c2ccccc2)sc1NC(=O)COC(C)c1cccc(NS(C)(=O)=O)c1 (stereo not drawn) [Compound 240]
> 100 | CCOC(=O)c1cc(-c2ccccc2)sc1NC(=O)Cn1ncc2ccc(NS(C)(=O)=O)cc21 [Compound 242]
> 100 | CCOC(=O)c1c(NC(=O)COC(=O)c2cccc(NS(C)(=O)=O)c2)sc2ccccc12 [Compound 243]
> 100 | CCOC(=O)c1cc(-c2ccccc2)sc1NC(=O)c1coc(-c2cccc(NS(C)(=O)=O)c2)n1 [Compound 244]
> 100 | CCOC(=O)c1cc(-c2ccccc2)sc1NC(=O)c1cnc(-c2cccc(NS(C)(=O)=O)c2)s1 [Compound 246]
> 100 | CCOC(=O)c1cc(-c2ccccc2)sc1NC(=O)c1cnc(-c2cccc(NS(C)(=O)=O)c2)o1 [Compound 248]
> 100 | CCOC(=O)c1cc(NC(=O)COC(=O)c2cccc(NS(C)(=O)=O)c2)ncc1-c1ccccc1 [Compound 249]
> 100 | CCOC(=O)c1c(NC(=O)COC(=O)c2cccc(NS(C)(=O)=O)c2)sc(-c2ccccc2)c1C(=O)OCC [Compound 251]
> 100 | CCOC(=O)c1cc(-c2ccccc2)sc1NC(=O)c1cccc(-c2cccc(NS(C)(=O)=O)c2)c1 [Compound 252]
> 100 | CCOC(=O)c1cc(-c2ccccc2)sc1NC(=O)COC(=O)c1cccc(C(=O)NS(C)(=O)=O)c1 [Compound 256]
> 100 | COC(=O)c1nc(-c2ccccc2)cnc1NC(=O)COC(=O)c1cccc(NS(C)(=O)=O)c1 [Compound 258]
> 100 | CCOC(=O)c1cc(-c2ccccc2)cnc1NC(=O)COC(=O)c1cccc(NS(C)(=O)=O)c1 [Compound 260]
> 100 | CCOC(=O)c1cc(-c2ccccc2)sc1NC(=O)c1cc(-c2cccc(NS(C)(=O)=O)c2)ncn1 [Compound 261]
> 100 | CCOC(=O)c1cc(NC(=O)c2ccccc2)sc1NC(=O)COC(=O)c1cccc(NS(C)(=O)=O)c1 [Compound 263]
> 100 | CCOC(=O)c1cc(-c2ccccc2)sc1NC(=O)c1cncc(-c2cccc(NS(C)(=O)=O)c2)n1 [Compound 264]
> 100 | CS(=O)(=O)Nc1cccc(C(=O)OCC(=O)Nc2cc(-c3ccccc3)[nH]n2)c1 [Compound 265]
> 100 | CCOC(=O)c1cc(-c2ccc(C(=O)Nc3cccc(NS(C)(=O)=O)c3)cc2)sc1NC(C)=O [Compound 266]
